# Reference: patent publication US20220347308A1, “METHODS AND MEANS FOR INDUCING AN IMMUNE RESPONSE” (BIONTECH AG, priority 2015, published 2022)
# System: interferon-alpha
# Experiment: Sensitization by a first danger signal to a subsequent Protamine-RNA injection, serum interferon-alpha (ELISA)
# Assay type: in vivo, mice
# Conditions: first injection: 50 micrograms CpG, 10 micrograms imiquimod, 2 micrograms dsRNA or 10 micrograms RNA in particles, then 10 micrograms RNA in Protamine particles, sera 3 h after second injection, vs single Protamine-RNA injection
# Description: The DNA oligonucleotide “CpG 1585” (invivogen) which is a mouse TLR9 agonist was diluted at 0.5 micrograms per microlitre in PBS. Imiquimod (invivogen) was diluted to 0.1 microgram per microliter in PBS. RNA (mRNA coding for firefly luciferase) and Protamine were diluted to 0.5 mg/ml using pure water. Hundred micrograms RNA (200 microliters) were mixed with hundred micrograms Protamine IPEX (200 microliters) thereby generating approximately 100 nm particles. Forty percent Glucose was added to reach 5% glucose final and 5% Glucose was added so that the final injectable solution contains 10 micrograms RNA (and 10 micrograms Protamine) in 70 microliters.
# Mice were injected intravenous with 100 microliters of CpG (50 micrograms DNA “CpG(2h)PR11”) or 100 microliters of imiquimod (10 micrograms Imiquimod “Imi(2h)PR11”) or 70 microliters of Protamine-RNA particles (10 micrograms RNA “PR11(2h)PR11”) and 2 hours later all received 70 microliters of Protamine-RNA (10 micrograms RNA) intravenous. Three mice per group. Sera were drawn 3 hours after this second injection. As controls, mice were injected intravenous with 100 microliters of CpG (50 micrograms “CpG alone”) or 100 microliters of imiquimod (10 micrograms “Imi alone”) or 70 microliters of Protamine-RNA particles (10 micrograms RNA “PR11 alone”). Three mice per group. […] Interferon-alpha was measured in sera using Verikine™ ELISA kit from PBL. […]
structure (smiles),measurement,setting,value
CC(C)Cn1cnc2c(N)nc3ccccc3c21 [Imiquimod],interferon-alpha in serum when given i.v. as first injection 2 h before Protamine-RNA particles,,can sensitize the immune system to produce an enhanced amount of interferon-alpha
same,interferon-alpha in serum when given i.v. as first injection 2 h before Protamine-RNA particles,listed as imiquimod,strong (synergistic) interferon production
